In patent US7452887B2, “Quinoline- and isoquinoline-based compounds exhibiting ATP-utilizing enzyme inhibitory activity, and compositions, and uses thereof” (Amphora Discovery Corporation, priority 2004, dated 2008):

Columns and labels:
Test in all cases: HTS ATP-utilizing enzyme assay, off-chip mobility-shift (Caliper HTS 250)
Conditions in all cases: test compound 10 μM, kinase listed = active (greater than six-sigma from the mean activity of inactive compounds)
PRAK = molecular target: T1, PRAK (Homo sapiens, UniProt Q8IW41); format: biochemical
T1 sequence (Q8IW41 1-473): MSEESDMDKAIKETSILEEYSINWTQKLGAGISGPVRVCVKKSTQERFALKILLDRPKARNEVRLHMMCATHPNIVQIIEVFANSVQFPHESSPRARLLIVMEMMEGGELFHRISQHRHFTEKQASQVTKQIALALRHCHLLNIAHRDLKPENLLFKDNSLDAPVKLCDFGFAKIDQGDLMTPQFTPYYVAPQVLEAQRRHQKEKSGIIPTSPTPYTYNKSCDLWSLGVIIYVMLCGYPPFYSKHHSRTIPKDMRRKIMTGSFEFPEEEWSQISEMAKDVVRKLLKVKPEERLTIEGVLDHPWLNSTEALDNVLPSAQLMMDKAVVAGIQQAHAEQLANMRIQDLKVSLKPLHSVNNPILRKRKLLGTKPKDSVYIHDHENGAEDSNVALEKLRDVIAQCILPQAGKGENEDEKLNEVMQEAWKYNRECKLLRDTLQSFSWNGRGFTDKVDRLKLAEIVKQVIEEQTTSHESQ
In short: (§1)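 Steps: compound added at 10 μM final; enzyme then peptide substrate added in HEPES pH 7.5, Triton X-100, BSA buffer; incubation 2.5 hrs at 20° C. to 22° C.; EDTA quench; microfluidic separation of substrate and phosphoproduct. DMSO wells set 0% inhibition, EDTA wells 100%.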

MAPKAPK2 = MAPKAPK2 (Homo sapiens, UniProt P49137); format: biochemical
In short: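 Single-point screen of test compound at 10 μM against MAPKAPK2 with peptide substrate in HEPES pH 7.5 buffer (Triton X-100, BSA), 2.5 h at 20-22 °C. Substrate-to-phosphopeptide ratio was read by off-chip microfluidic mobility shift; EDTA and DMSO wells defined 100% and 0% controls, hits by six-sigma limits.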

CK2 = format: biochemical, human
Text: The following procedures describe the reagent and plate preparation for a HTS of an ATP-utilizing enzyme, such as a protein kinase, run in an off-chip mobility-shift assay format. The following provides an HTS protocol for running a protein kinase HTS screen on a Caliper HTS 250 microfluidics system. The following parameters are dependent on the protein kinase used and can be determined by one skilled in the art as part of a typical assay development process. For example, the peptide substrate used can be identified from the current literature, by screening a peptide library of potential protein kinase substrates, or by other applicable means accepted in the field.
The following table provides typical screen assay parameters appropriate for a Caliper HTS 250 microfluidics system.
The reagents and buffers listed in the following table are generally applicable for developing and running an HTS screen on a human protein kinase using the Caliper HTS 250 system.
The following reagents were prepared using the previously described buffers.
A 2× Master Buffer solution was prepared by combining 200 mL of 1 M HEPES, pH 7.5, 2 mL of 10% Triton X-100, 20 mL of 10% BSA, and 778 mL of H2O.
A 2.5× Substrate Buffer solution was prepared by combining 177.408 mL of 2× Master Buffer, 0.887 mL of 1 mM peptide-X, and 176.521 mL of H2O.
A 1.55× Termination Buffer solution was prepared by combining 762.05 mL of 2× Master Buffer, 95.1 mL of 0.5 M EDTA, and 666.94 mL of H2O. […]
Assays to determine the kinase inhibitory activity of compounds of the present disclosure were performed using a Caliper HTS 250 microfluidics device, Greiner U-bottom assay plates, a Multidrop for transfer of reagents, and Biomek FX (AMNCBM03) software. […] The inhibition of the ATP-utilizing enzyme, such as a particular protein kinase, was determined by measuring the ratio of the peptide substrate to phosphorylated product for each well of the assay plate using the Caliper HTS 250 system. […]

KIT = KIT (Homo sapiens, UniProt P10721); format: biochemical
In short: as §1

CDK1/cyclin B = CDK1/cyclin B (Homo sapiens, UniProt P06493); format: biochemical
In short: as §1

DYRK2 = molecular target: T2, DYRK2 (Homo sapiens, UniProt Q92630); format: biochemical
T2 sequence (Q92630 1-601): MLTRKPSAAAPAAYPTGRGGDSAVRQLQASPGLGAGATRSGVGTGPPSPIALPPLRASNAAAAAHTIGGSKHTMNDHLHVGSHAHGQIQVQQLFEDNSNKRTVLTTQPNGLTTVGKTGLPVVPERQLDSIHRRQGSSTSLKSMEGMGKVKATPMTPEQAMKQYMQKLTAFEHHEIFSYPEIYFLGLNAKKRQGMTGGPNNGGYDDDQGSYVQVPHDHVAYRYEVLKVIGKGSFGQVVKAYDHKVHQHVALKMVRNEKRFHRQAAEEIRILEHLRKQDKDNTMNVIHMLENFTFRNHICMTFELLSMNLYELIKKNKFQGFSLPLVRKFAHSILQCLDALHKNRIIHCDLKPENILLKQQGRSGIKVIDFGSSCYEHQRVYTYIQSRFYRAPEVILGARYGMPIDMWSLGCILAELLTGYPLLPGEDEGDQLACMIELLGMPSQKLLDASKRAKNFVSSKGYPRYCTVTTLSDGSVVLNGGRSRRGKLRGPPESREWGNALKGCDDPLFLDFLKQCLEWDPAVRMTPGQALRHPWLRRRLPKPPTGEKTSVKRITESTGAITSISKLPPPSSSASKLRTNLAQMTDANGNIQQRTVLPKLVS
In short: as §1

ROCK2 = ROCK2 (Homo sapiens, UniProt O75116); format: biochemical
In short: as §1

NEK2 = molecular target: T3, NEK2 (Homo sapiens, UniProt P51955); format: biochemical
T3 sequence (P51955 1-445): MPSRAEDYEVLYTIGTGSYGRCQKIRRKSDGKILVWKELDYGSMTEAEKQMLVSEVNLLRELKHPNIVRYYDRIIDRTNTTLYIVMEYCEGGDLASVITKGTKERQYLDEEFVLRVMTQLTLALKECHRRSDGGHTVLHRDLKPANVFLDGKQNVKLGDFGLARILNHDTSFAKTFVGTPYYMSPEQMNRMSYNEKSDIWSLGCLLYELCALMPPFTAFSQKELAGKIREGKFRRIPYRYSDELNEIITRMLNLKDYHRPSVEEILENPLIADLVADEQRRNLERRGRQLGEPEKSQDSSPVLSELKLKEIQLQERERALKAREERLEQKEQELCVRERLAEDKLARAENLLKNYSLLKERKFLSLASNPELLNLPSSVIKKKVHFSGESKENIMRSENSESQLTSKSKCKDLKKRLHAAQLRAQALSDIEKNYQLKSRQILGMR
In short: as §1

CDK2/cyclin A = CDK2/cyclin A (Homo sapiens, UniProt P24941); format: biochemical
In short: as §1

CHEK2 = CHEK2 (Homo sapiens, UniProt O96017); format: biochemical
In short: as §1

C-TAK1 = C-TAK1 (Homo sapiens, UniProt P27448); format: biochemical
In short: as §1

MSK1 = MSK1 (Homo sapiens, UniProt O75582); format: biochemical
In short: as §1

SYK = SYK (Homo sapiens, UniProt P43405); format: biochemical
In short: as §1

SRC = SRC (Homo sapiens, UniProt P12931); format: biochemical
In short: as §1

GSK-3-β = GSK-3-β (Homo sapiens, UniProt P49841); format: biochemical
In short: as §1

GSK3-α = GSK3-α (Homo sapiens, UniProt P49840); format: biochemical
In short: as §1

Chain of MAPKAPK2 (P49137 whole entry): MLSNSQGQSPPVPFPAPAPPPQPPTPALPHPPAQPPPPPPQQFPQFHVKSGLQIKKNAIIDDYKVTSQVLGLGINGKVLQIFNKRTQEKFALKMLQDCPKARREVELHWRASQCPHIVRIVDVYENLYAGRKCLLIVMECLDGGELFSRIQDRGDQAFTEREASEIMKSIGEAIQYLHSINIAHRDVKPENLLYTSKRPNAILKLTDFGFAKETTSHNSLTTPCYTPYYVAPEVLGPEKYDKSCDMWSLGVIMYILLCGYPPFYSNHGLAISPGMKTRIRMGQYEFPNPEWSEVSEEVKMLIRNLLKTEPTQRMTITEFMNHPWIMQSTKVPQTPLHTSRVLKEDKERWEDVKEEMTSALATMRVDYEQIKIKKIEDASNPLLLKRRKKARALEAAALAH
Chain of CHEK2 (O96017 whole entry): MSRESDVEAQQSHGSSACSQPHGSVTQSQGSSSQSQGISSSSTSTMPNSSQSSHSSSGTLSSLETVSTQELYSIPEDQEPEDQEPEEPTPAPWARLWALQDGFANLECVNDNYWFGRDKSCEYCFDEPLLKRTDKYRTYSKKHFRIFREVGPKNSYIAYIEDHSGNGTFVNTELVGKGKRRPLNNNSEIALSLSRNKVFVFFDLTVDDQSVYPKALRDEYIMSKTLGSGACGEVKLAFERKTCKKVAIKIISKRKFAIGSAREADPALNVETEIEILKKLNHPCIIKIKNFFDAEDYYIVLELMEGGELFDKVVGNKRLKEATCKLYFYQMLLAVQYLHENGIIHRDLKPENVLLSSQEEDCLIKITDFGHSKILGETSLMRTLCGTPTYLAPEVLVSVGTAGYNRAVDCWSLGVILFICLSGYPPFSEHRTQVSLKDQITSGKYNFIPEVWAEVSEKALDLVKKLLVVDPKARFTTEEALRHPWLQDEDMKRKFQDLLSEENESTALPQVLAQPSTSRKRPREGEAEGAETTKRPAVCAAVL
Chain of C-TAK1 (P27448 whole entry): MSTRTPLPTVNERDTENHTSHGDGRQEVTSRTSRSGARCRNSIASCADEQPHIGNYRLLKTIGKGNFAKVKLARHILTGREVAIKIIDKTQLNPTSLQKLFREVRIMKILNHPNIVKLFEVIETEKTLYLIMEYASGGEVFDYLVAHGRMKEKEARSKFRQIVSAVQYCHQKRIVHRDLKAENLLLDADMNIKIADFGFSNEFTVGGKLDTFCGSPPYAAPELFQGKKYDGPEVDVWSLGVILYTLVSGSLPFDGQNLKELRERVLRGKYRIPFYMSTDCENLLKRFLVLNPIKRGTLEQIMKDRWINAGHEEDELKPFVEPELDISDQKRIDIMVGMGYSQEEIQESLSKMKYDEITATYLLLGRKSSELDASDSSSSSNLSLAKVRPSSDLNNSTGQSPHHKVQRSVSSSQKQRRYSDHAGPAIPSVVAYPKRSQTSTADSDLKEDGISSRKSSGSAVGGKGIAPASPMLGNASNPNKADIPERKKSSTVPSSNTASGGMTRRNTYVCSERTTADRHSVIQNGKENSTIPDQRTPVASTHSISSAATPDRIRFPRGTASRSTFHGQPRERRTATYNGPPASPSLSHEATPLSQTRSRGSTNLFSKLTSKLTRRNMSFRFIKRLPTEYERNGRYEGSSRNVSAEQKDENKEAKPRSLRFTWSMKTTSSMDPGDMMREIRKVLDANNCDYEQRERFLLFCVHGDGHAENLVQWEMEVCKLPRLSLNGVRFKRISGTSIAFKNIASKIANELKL
Chain of GSK3-α (P49840 whole entry): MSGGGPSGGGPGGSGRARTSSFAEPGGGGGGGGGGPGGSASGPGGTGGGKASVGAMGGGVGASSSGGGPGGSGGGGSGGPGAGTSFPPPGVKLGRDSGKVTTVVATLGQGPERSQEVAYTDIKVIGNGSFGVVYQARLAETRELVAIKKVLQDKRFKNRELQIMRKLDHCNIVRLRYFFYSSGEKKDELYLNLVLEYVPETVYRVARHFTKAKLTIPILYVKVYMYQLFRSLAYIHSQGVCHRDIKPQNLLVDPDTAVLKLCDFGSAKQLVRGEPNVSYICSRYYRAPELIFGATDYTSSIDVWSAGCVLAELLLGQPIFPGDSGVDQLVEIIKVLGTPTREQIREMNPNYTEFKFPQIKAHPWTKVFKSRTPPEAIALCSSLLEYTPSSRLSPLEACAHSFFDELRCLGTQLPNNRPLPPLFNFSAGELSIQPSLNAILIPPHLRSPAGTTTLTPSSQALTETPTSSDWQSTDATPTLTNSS
Chain of SRC (P12931 whole entry): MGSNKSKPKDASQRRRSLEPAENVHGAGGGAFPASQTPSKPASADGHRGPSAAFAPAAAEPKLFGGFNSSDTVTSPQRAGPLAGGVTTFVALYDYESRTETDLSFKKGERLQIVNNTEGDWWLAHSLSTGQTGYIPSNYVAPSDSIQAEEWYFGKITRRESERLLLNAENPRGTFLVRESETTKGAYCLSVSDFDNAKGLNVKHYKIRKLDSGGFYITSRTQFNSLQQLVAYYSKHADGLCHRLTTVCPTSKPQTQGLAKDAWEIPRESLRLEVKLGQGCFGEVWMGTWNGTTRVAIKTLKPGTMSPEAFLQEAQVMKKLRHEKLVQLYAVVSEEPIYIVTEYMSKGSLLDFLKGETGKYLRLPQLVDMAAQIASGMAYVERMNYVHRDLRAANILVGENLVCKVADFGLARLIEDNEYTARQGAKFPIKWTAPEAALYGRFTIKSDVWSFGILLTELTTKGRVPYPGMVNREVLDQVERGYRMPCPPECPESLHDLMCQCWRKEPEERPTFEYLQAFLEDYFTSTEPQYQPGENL
Chain of CDK1/cyclin B (P06493 whole entry): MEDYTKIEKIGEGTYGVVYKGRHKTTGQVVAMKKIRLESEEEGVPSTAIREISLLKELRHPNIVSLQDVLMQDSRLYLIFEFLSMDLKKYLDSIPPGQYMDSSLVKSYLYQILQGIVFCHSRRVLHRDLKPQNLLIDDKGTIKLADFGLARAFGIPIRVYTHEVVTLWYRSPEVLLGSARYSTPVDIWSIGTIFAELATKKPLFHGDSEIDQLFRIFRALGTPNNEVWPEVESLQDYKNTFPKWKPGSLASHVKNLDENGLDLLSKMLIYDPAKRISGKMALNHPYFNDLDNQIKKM
Chain of CDK1/cyclin B (P14635 whole entry partner): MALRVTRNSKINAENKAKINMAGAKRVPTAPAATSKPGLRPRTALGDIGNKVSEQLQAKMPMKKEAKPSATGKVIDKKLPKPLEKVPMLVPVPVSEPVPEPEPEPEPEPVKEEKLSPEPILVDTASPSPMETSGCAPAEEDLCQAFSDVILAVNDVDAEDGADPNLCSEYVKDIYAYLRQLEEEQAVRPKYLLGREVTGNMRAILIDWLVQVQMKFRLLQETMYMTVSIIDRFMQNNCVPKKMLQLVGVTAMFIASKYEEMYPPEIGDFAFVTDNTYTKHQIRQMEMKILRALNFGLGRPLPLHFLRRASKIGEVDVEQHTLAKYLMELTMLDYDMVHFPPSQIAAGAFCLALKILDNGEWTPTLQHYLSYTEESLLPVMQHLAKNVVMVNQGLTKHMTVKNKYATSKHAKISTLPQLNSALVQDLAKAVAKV
Chain of MSK1 (O75582 whole entry): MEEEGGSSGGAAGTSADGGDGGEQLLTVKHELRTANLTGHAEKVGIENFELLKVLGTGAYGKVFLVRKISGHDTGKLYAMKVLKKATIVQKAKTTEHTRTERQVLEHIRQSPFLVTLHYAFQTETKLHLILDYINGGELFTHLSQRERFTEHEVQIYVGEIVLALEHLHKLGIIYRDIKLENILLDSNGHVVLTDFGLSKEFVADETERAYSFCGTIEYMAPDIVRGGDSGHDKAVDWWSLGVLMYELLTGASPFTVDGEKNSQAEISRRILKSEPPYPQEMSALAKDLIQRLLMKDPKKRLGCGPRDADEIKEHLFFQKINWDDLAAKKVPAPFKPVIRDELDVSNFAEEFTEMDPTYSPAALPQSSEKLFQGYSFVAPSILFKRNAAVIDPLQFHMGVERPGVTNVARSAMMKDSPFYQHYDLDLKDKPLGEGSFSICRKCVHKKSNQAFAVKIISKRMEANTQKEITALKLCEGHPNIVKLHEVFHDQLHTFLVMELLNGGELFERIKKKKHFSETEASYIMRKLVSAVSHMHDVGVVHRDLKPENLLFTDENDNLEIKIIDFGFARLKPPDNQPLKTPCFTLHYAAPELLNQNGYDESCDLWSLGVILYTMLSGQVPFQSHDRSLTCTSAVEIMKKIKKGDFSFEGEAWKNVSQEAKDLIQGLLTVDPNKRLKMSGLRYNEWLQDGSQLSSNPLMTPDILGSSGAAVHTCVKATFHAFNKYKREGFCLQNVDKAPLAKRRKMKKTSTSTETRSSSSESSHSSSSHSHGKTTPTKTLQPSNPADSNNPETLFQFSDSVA
Chain of GSK-3-β (P49841 whole entry): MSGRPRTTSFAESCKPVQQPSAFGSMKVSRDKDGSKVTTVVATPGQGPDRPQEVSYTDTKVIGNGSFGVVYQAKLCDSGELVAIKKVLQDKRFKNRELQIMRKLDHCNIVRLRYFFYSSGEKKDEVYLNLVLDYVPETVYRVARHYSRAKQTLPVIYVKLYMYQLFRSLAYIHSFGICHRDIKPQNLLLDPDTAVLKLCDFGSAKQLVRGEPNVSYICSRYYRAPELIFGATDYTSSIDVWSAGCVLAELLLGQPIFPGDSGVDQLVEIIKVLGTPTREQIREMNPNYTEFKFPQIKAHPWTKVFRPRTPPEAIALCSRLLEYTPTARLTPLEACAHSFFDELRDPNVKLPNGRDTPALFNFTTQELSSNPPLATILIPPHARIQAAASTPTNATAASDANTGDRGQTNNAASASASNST

Row | Activity (PRAK) | Activity (MAPKAPK2) | Activity (NEK2) | Activity (CDK2/cyclin A) | Activity (CHEK2) | Activity (C-TAK1) | Structure (SMILES) | other results
1 | PRAK | MAPKAPK2 |  |  |  |  | CN1CCN(c2ccc(Nc3ccnc4ccc(-c5cccc(C(=O)O)c5)cc34)cc2)CC1 [3-(4-(4-(4-methylpiperazin-1-yl)phenylamino)quinolin-6-yl)benzoic acid] | Activity (CK2): CK2
2 | PRAK |  |  |  |  |  | CNC1CCN(c2ccc(Nc3ccnc4ccc(-c5ccc(C#N)cc5)cc34)cc2)C1 (centres unmarked) [4-(4-(4-(3-(methylamino)pyrrolidin-1-yl)phenylamino)quinolin-6-yl)benzonitrile] | Activity (KIT): KIT; Activity (CDK1/cyclin B): CDK1/cyclin B
3 | PRAK | MAPKAPK2 | NEK2 |  |  |  | CN1CCN(c2ccc(Nc3ccnc4ccc(-c5ccc(C(N)=O)cc5)cc34)cc2)CC1 [4-(4-(4-(4-methylpiperazin-1-yl)phenylamino)quinolin-6-yl)benzamide] | Activity (DYRK2): DYRK2; Activity (ROCK2): ROCK2
4 | PRAK | MAPKAPK2 | NEK2 | CDK2/cyclin A | CHEK2 | C-TAK1 | CN1CCN(c2ccc(Nc3ccnc4ccc(-c5ccc(Cl)c(Cl)c5)cc34)cc2)CC1 [6-(3,4-dichlorophenyl)-N-(4-(4-methylpiperazin-1-yl)phenyl)quinolin-4-amine] | 
5 | PRAK | MAPKAPK2 |  | CDK2/cyclin A | CHEK2 | C-TAK1 | CN1CCN(c2ccc(Nc3ccnc4ccc(-c5cccc(OCc6ccccc6)c5)cc34)cc2)CC1 [6-(3-(benzyloxy)phenyl)-N-(4-(4-methylpiperazin-1-yl)phenyl)quinolin-4-amine] | 
6 | PRAK | MAPKAPK2 | NEK2 |  |  | C-TAK1 | CN1CCN(c2ccc(Nc3ccnc4ccc(-c5ccc(F)c(Cl)c5)cc34)cc2)CC1 [6-(3-chloro-4-fluorophenyl)-N-(4-(4-methylpiperazin-1-yl)phenyl)quinolin-4-amine] | Activity (MSK1): MSK1
7 |  | MAPKAPK2 |  |  |  | C-TAK1 | CN1CCN(c2ccc(Nc3ccnc4ccc(-c5ccc(OCc6ccccc6)c(F)c5)cc34)cc2)CC1 [6-(4-(benzyloxy)-3-fluorophenyl)-N-(4-(4-methylpiperazin-1-yl)phenyl)quinolin-4-amine] | Activity (SYK): SYK; Activity (SRC): SRC
8 |  | MAPKAPK2 |  |  |  |  | CN1CCN(c2ccc(Nc3ccnc4ccc(-c5ccoc5)cc34)cc2)CC1 [6-(furan-3-yl)-N-(4-(4-methylpiperazin-1-yl)phenyl)quinolin-4-amine] | Activity (GSK-3-β): GSK-3-β; Activity (DYRK2): DYRK2; Activity (GSK3-α): GSK3-α
9 | PRAK | MAPKAPK2 | NEK2 |  |  |  | CN1CCN(c2ccc(Nc3ccnc4ccc(-c5ccccc5C(F)(F)F)cc34)cc2)CC1 [N-(4-(4-methylpiperazin-1-yl)phenyl)-6-(2-(trifluoromethyl)phenyl)quinolin-4-amine] | Activity (CK2): CK2
10 | PRAK | MAPKAPK2 |  | CDK2/cyclin A | CHEK2 |  | CN1CCN(c2ccc(Nc3ccnc4ccc(-c5cccs5)cc34)cc2)CC1 [N-(4-(4-methylpiperazin-1-yl)phenyl)-6-(thiophen-2-yl)quinolin-4-amine] | Activity (GSK3-α): GSK3-α
